Data on seven molecules can be found in patent US11448654B2, “Protein-protein interaction assessed by detecting localized coiled coil subunits” (The Regents of the University of California, priority 2017, dated 2022).

The test system of assay [1] is ERK activity. Nature of the assay: ERK-SPARK phase separation kinase reporter in HEK293 cells. The following applies: for effect of pre-incubation on phase separation of ERK-SPARK upon addition of EGF: HEK293 cells, pre-incubation before EGF.
Source text: To determine whether the SPARK design generalizes, the highly conserved kinase ERK was utilized in a second pair of reporter fusion proteins. To design a SPARK-based ERK reporter (ERK-SPARK), the ERK activity-sensing motifs that were used for previous FRET-based ERK reporters were employed. One of the ERK activity-sensing motifs is a phosphopeptide sequence from Cdc25C, followed by an ERK-specific docking site that determines substrate specificity. The companion fragment is a WW domain that binds the phosphorylated substrate. The ERK substrate sequence was fused to EGFP followed by HOTag3, and the WW domain was fused to EGFP followed by HOTag6. The two fusions were connected by a “self-cleaving” 2A sequence. The pair of reporter fusion proteins was expressed in HEK293 cells exposed to epidermal growth factor (EGF). EGF binds the EGF receptor, resulting in ERK activation. […] Because the ERK docking site was previously shown to be critical for ERK recognition and binding to substrate, a reporter lacking the 4-amino-acid docking site was generated.
To investigate whether ERK-SPARK could detect GPCR-induced ERK activity, a hexapeptide full agonist for protease-activated receptor-1 was added to HEK293 cells.
Assay [2] concerns protein kinase A (PKA) activity. Nature of the assay: PKA-SPARK phase separation kinase reporter in HEK293 cells. It is filed as cell-based, human. To be noted: for effect of pre-incubation on isoprenaline-induced droplet formation / PKA-SPARK signal: HEK293 cells, pre-incubation before isoprenaline. The text has this:
To design a SPARK-based PKA, reporter (named PKA-SPARK), a consensus peptide sequence was utilized that is specifically phosphorylated by PKA, as described in Durocher et al., (2000). The molecular basis of FHA domain: phosphopeptide binding specificity and implications for phospho-dependent signaling mechanisms. Mol Cell 6, 1169-1182. To introduce PKA activity-dependent PPI, forkhead-associated domain 1 (FHA1) was sued, which is a phosphothreonine binding domain. […] These two fusion sequences were connected by a “self-cleaving” 2A sequence. The rationale was that substrate and the FHA1 would induce PKA activity-dependent protein-protein interaction, the two HOTags introduce multivalency; and upon PKA activation, multivalent protein-protein interactions would be induced, leading to phase separation and formation of EGFP droplets.
To test the construct, the β-adrenergic agonist isoprenaline was added to HEK293 cells that endogenously express β-adrenergic receptors (βAR). βAR activation induces GDP for GTP exchange in the heteratrimeric G protein Gs, and GTP-bound Gαs activates adenylyl cyclase (AC), which converts ATP into cAMP that activates PKA. […] In order to confirm that the phase separation results from phosphorylation of PKA-SPARK at the expected threonine residue, we changed the threonine to alanine in the PKA substrate sequence.
Next it was tested whether phase separation of the reporter is reversible, i.e. whether the EGFP droplets would disassemble or dissolve when PKA is inactivated. Cells were pre-incubated with isoprenaline to induce phase separation, then isoprenaline was removed and H89 added to inactivate PKA. […] As a control, the EGFP droplets were stable over time in the cells with removal of isoprenaline but addition of medium without H89. […] To examine whether PKA-SPARK could quantitatively measure the droplets' disassembly over time after PKA inhibition, we defined “SPARK signal” as the sum of fluorescent droplets' pixel intensity divided by sum of cells' pixel intensity. Upon addition of H89, the SPARK signal decreased over time. In contrast, for the control the SPARK signal remained constant over time.
Time-lapse fluorescence imaging of PKA-SPARK was performed at 10 seconds per frame. […] PKA activation upon addition of isoprenaline was confirmed by AKAR2 reporter. Small droplets of PKA-SPARK were detected as early as at 20 seconds upon addition of isoprenaline. The quick activation of PKA is consistent with rapid activation of the βAR-cAMP-PKA pathway. The small droplets grew quickly and coalesced into large and intensively fluorescent droplets, which were up to 10-fold brighter than the cellular fluorescence before PKA activation. […] Therefore, PKA-SPARK achieves up to 10-fold fluorescence increase, compared to prior art AKAR2 and PKA-KTR reporters, which have ˜10% and ˜30% fluorescence ratio change, respectively. […] The results also verified that PKA-SPARK could detect PKA activity over a wide range of reporter expression. Lastly the concentration of PKA-SPARK (2-10 μM) appeared to have no effect on kinetics of droplet assembly and disassembly.
In additional experiments, PKA was activated via the G-coupled GPCR βAR. Isoprenaline was added to activate endogenous βARs in HEK293 cells.

In assay [3] the test system is PKA activity. Nature of the assay: PKA-SPARK in zebrafish embryo muscle cells. The class given is in vivo. To be noted: 24 hrs APF, upon addition of isoprenaline.
Assay [4] deals with T1, interaction between CRBN and GSPT1 (Homo sapiens, UniProt P15170+Q96SW2).
T1 construct: expressed in transfected cells; host or cells: HEK293
T1 sequence (Q96SW2 whole entry): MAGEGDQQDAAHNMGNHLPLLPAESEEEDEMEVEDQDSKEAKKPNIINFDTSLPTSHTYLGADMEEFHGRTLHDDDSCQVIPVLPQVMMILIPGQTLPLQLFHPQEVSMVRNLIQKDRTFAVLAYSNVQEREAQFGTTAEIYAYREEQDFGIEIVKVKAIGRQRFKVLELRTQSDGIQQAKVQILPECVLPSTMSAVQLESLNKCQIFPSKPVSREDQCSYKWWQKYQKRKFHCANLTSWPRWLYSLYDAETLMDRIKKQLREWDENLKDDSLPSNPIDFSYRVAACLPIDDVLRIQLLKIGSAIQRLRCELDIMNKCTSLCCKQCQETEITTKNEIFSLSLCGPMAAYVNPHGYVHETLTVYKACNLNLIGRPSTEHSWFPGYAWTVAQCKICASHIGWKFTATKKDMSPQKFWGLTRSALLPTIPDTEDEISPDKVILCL
T1 sequence (P15170 whole entry): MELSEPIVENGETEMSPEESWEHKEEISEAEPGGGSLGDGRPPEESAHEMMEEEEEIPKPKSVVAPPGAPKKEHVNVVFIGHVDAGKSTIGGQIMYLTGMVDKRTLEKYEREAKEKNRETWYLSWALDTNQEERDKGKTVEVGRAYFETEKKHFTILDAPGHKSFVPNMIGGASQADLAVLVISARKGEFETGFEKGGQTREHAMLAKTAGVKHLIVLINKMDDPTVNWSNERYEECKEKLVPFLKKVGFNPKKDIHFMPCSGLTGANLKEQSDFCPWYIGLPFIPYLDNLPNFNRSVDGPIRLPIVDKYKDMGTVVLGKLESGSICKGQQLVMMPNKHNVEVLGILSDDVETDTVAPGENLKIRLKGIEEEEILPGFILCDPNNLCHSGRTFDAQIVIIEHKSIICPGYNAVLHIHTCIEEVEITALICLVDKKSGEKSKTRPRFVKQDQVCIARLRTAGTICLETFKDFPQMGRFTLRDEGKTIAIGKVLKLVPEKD
Put plainly: SPARK reporter CRBN-EGFP-HOTag3 / GSPT1-HOTag6 in HEK293 cells. It is filed as cell-based. To be noted: time-lapse imaging. The text has this:
Many analogs and derivatives of IMiDs have recently been designed and explored as drug leads. […] To examine whether SPARK can detect CC-885 induced protein-protein interactions, HOTag6 was genetically fused to GSPT1 and co-expressed with CRBN-EGFP-HOTag3 in HEK293 cells. […] Thus, SPARK also detects CC-885 induced protein-protein interactions.

In the case of `C[S+]([O-])c1ccc(-c2nc(-c3ccncc3)c(-c3ccc(F)cc3)[nH]2)cc1` (centres unmarked) [SB 203580], the “effect of pre-incubation on phase separation of ERK-SPARK upon addition of EGF” value in assay [1] is given as “did not abolish formation of EGFP droplets”. For the molecule `CC(C)NCC(O)c1ccc(O)c(O)c1` (centres unmarked) [isoprenaline], the “persistence of EGFP droplets (sustained PKA activity)” value in assay [2] (endogenous βARs in HEK293 cells) is “at least 3 hrs”. In assay [2] (reporter-expressing HEK293 cells), the “fluorescent droplet formation upon addition of βAR agonist” value is “fluorescent droplets formed”. In assay [2] (time-lapse imaging at 10 seconds per frame), the “earliest detection of small PKA-SPARK droplets after addition” value is 20 s. In assay [3], the “EGFP droplet formation in muscle cells” value is on record as “EGFP droplet formation”. In the case of “EGF: epidermal growth factor; binds the EGF receptor, resulting in ERK activation (NSDSECPLSHDGYCLHDGVCMYIEALDKYACNCVVGYIGERCQYRDLKWWELR; UniProt P01133 971-1023, looked up)”, in assay [1] (ERK-SPARK expressing HEK293 cells), the “EGFP droplet formation upon addition of stimulus” value is “EGFP droplets formed”. Consider `COc1ccccc1OCCNCC(O)COc1cccc2[nH]c3ccccc3c12` (centres unmarked) [carvedilol], for which, in assay [2], the “effect of pre-incubation on isoprenaline-induced droplet formation / PKA-SPARK signal” value is recorded as “abolished the sustained PKA-SPARK signals”. On to `Cc1ccc(NC(=O)NCc2ccc3c(c2)CN(C2CCC(=O)NC2=O)C3=O)cc1Cl` (centres unmarked) [CC-885], for which the “droplet formation (punctal green fluorescence) upon addition” value in assay [4] is “intensely bright and punctal green fluorescence”.

`O=S(=O)(NCCNC/C=C/c1ccc(Br)cc1)c1cccc2cnccc12` [H89]: the “effect of pre-incubation on isoprenaline-induced droplet formation / PKA-SPARK signal” value in assay [2] is “abolished isoprenaline-induced droplet formation”. Also, the “EGFP droplet disassembly when PKA is inactivated” value in assay [2] (cells pre-incubated with isoprenaline, isoprenaline removed, H89 added) was “EGFP droplets disassembled rapidly”. With `O=C(NOC[C@H](O)CO)c1ccc(F)c(F)c1Nc1ccc(I)cc1F` [PD 0325901], the “effect of pre-incubation on phase separation of ERK-SPARK upon addition of EGF” value in assay [1] is listed as “abolished phase separation”.
